Our source for the EC50 values is patent publication US8748415B2 (priority 2011, dated 2014).

SMILES strings stand for the structures.

The first assay has as its system recombinant NL4-3 virus (Renilla luciferase in nef, Gag P373S). The assay is described as follows: HIV cell culture assay (luciferase activity in MT-2 cells infected with NLRluc recombinant virus). It is filed as cell-based. The note with it: NL43, MT-2 cells infected 4-5 days with NLRluc recombinant virus, class symbol. The procedure, abridged:
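Activity was read as luciferase output (Dual Luciferase reagents premixed with lysis solution) after 4–5 days of infection in serially diluted inhibitor. Host cells were MT-2 in 10% FBS RPMI. The reporter virus came from transfected 293T cells and was titered on MT-2.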
What is called EC50 is the midpoint of the concentration-response curve. For `C=C(C)[C@@H]1CC[C@]2(CNC(=O)NCCN3CCCC3=O)CC[C@]3(C)[C@H](CC[C@@H]4[C@@]5(C)CC=C(c6ccc(C(=O)O)cc6)C(C)(C)[C@@H]5CC[C@]43C)[C@@H]12` [Example 154, 4-((1R,3aS,5aR,5bR,7aR,11aS,11bR,13aR,13bR)-5a,5b,8,8,11a-pentamethyl-3a-((3-(2-(2-oxopyrrolidin-1-yl)ethyl)ureido)methyl)-1-(prop-1-en-2-yl)-2,3,3a,4,5,5a,5b,6,7,7a,8,11,11a,11b,12,13,13a,13b-octadecahydro-1H-cyclopenta[a]chrysen-9-yl)benzoic acid], the EC50 is less than 100 nM.
Regarding `C=C(C)[C@@H]1CC[C@]2(CNC(=O)NCCCN3CCCC3=O)CC[C@]3(C)[C@H](CC[C@@H]4[C@@]5(C)CC=C(c6ccc(C(=O)O)cc6)C(C)(C)[C@@H]5CC[C@]43C)[C@@H]12` [Example 155, 4-((1R,3aS,5aR,5bR,7aR,11aS,11bR,13aR,13bR)-5a,5b,8,8,11a-pentamethyl-3a-((3-(3-(2-oxopyrrolidin-1-yl)propyl)ureido)methyl)-1-(prop-1-en-2-yl)-2,3,3a,4,5,5a,5b,6,7,7a,8,11,11a,11b,12,13,13a,13b-octadecahydro-1H-cyclopenta[a]chrysen-9-yl)benzoic acid], the EC50 was less than 100 nM.
On the same count and under the same terms, to `C=C(C)[C@@H]1CC[C@]2(CNC(=O)NCC(=O)OCC)CC[C@]3(C)[C@H](CC[C@@H]4[C@@]5(C)CC=C(c6ccc(C(=O)O)cc6)C(C)(C)[C@@H]5CC[C@]43C)[C@@H]12` [Example 156, 4-((1R,3aS,5aR,5bR,7aR,11aS,11bR,13aR,13bR)-3a-((3-(2-ethoxy-2-oxoethyl)ureido)methyl)-5a,5b,8,8,11a-pentamethyl-1-(prop-1-en-2-yl)-2,3,3a,4,5,5a,5b,6,7,7a,8,11,11a,11b,12,13,13a,13b-octadecahydro-1H-cyclopenta[a]chrysen-9-yl)benzoic acid] belongs less than 100 nM.
Regarding `C=C(C)[C@@H]1CC[C@]2(CNC(=O)NCC(=O)OC)CC[C@]3(C)[C@H](CC[C@@H]4[C@@]5(C)CC=C(c6ccc(C(=O)O)cc6)C(C)(C)[C@@H]5CC[C@]43C)[C@@H]12` [Example 158, 4-((1R,3aS,5aR,5bR,7aR,11aS,11bR,13aR,13bR)-3a-((3-(2-methoxy-2-oxoethyl)ureido)methyl)-5a,5b,8,8,11a-pentamethyl-1-(prop-1-en-2-yl)-2,3,3a,4,5,5a,5b,6,7,7a,8,11,11a,11b,12,13,13a,13b-octadecahydro-1H-cyclopenta[a]chrysen-9-yl)benzoic acid], the EC50 is less than 100 nM.
On the same count and under the same terms, to `C=C(C)[C@@H]1CC[C@]2(CNC(=O)NCCN3CCS(=O)(=O)CC3)CC[C@]3(C)[C@H](CC[C@@H]4[C@@]5(C)CC=C(c6ccc(C(=O)O)cc6)C(C)(C)[C@@H]5CC[C@]43C)[C@@H]12` [Example 161, 4-((1R,3aS,5aR,5bR,7aR,11aS,11bR,13aR,13bR)-3a-((((2-(1,1-dioxido-4-thiomorpholinyl)ethyl)carbamoyl)amino)methyl)-1-isopropenyl-5a,5b,8,8,11a-pentamethyl-2,3,3a,4,5,5a,5b,6,7,7a,8,11,11a,11b,12,13,13a,13b-octadecahydro-1H-cyclopenta[a]chrysen-9-yl)benzoic acid] belongs less than 100 nM; to `C=C(C)[C@@H]1CC[C@]2(CNC(=O)OCCN3CCCC3=O)CC[C@]3(C)[C@H](CC[C@@H]4[C@@]5(C)CC=C(c6ccc(C(=O)O)cc6)C(C)(C)[C@@H]5CC[C@]43C)[C@@H]12` [Example 162, 4-((1R,3aS,5aR,5bR,7aR,11aS,11bR,13aR,13bR)-5a,5b,8,8,11a-pentamethyl-3a-(((2-(2-oxopyrrolidin-1-yl)ethoxy)carbonylamino)methyl)-1-(prop-1-en-2-yl)-2,3,3a,4,5,5a,5b,6,7,7a,8,11,11a,11b,12,13,13a,13b-octadecahydro-1H-cyclopenta[a]chrysen-9-yl)benzoic acid], less than 100 nM.
Still for that read-out and setting: with `C=C(C)[C@@H]1CC[C@]2(CNC(=O)OCCN3CCNCC3)CC[C@]3(C)[C@H](CC[C@@H]4[C@@]5(C)CC=C(c6ccc(C(=O)O)cc6)C(C)(C)[C@@H]5CC[C@]43C)[C@@H]12` [Example 163, 4-((1R,3aS,5aR,5bR,7aR,11aS,11bR,13aR,13bR)-5a,5b,8,8,11a-pentamethyl-3a-(((2-(piperazin-1-yl)ethoxy)carbonylamino)methyl)-1-(prop-1-en-2-yl)-2,3,3a,4,5,5a,5b,6,7,7a,8,11,11a,11b,12,13,13a,13b-octadecahydro-1H-cyclopenta[a]chrysen-9-yl)benzoic acid] the figure was less than 100 nM; with `C=C(C)[C@@H]1CC[C@]2(CNC(=O)OCCCN3CCS(=O)(=O)CC3)CC[C@]3(C)[C@H](CC[C@@H]4[C@@]5(C)CC=C(c6ccc(C(=O)O)cc6)C(C)(C)[C@@H]5CC[C@]43C)[C@@H]12` [Example 164, 4-((1R,3aS,5aR,5bR,7aR,11aS,11bR,13aR,13bR)-3a-((((3-(1,1-dioxido-4-thiomorpholinyl)propoxy)carbonyl)amino)methyl)-1-isopropenyl-5a,5b,8,8,11a-pentamethyl-2,3,3a,4,5,5a,5b,6,7,7a,8,11,11a,11b,12,13,13a,13b-octadecahydro-1H-cyclopenta[a]chrysen-9-yl)benzoic acid], less than 100 nM; with `C=C(C)[C@@H]1CC[C@]2(CNC(=O)OCCN3CCS(=O)(=O)CC3)CC[C@]3(C)[C@H](CC[C@@H]4[C@@]5(C)CC=C(c6ccc(C(=O)O)cc6)C(C)(C)[C@@H]5CC[C@]43C)[C@@H]12` [Example 165, 4-((1R,3aS,5aR,5bR,7aR,11aS,11bR,13aR,13bR)-3a-((((2-(1,1-dioxido-4-thiomorpholinyl)ethoxy)carbonyl)amino)methyl)-1-isopropenyl-5a,5b,8,8,11a-pentamethyl-2,3,3a,4,5,5a,5b,6,7,7a,8,11,11a,11b,12,13,13a,13b-octadecahydro-1H-cyclopenta[a]chrysen-9-yl)benzoic acid], less than 100 nM.
Take `C=C(C)[C@@H]1CC[C@]2(CNC(=O)OCCCN3CCCC3=O)CC[C@]3(C)[C@H](CC[C@@H]4[C@@]5(C)CC=C(c6ccc(C(=O)O)cc6)C(C)(C)[C@@H]5CC[C@]43C)[C@@H]12` [Example 166, 4-((1R,3aS,5aR,5bR,7aR,11aS,11bR,13aR,13bR)-5a,5b,8,8,11a-pentamethyl-3a-(((3-(2-oxopyrrolidin-1-yl)propoxy)carbonylamino)methyl)-1-(prop-1-en-2-yl)-2,3,3a,4,5,5a,5b,6,7,7a,8,11,11a,11b,12,13,13a,13b-octadecahydro-1H-cyclopenta[a]chrysen-9-yl)benzoic acid]: the EC50 was less than 100 nM.
Turning to `C=C(C)[C@@H]1CC[C@]2(CNS(=O)(=O)c3ccc(C(=O)O)cc3)CC[C@]3(C)[C@H](CC[C@@H]4[C@@]5(C)CC=C(c6ccc(C(=O)O)cc6)C(C)(C)[C@@H]5CC[C@]43C)[C@@H]12` [Example 167, 4-(N—(((1R,3aS,5aR,5bR,7aR,11aS,11bR,13aR,13bR)-9-(4-carboxyphenyl)-5a,5b,8,8,11a-pentamethyl-1-(prop-1-en-2-yl)-2,3,3a,4,5,5a,5b,6,7,7a,8,11,11a,11b,12,13,13a,13b-octadecahydro-1H-cyclopenta[a]chrysen-3a-yl)methyl)sulfamoyl)benzoic acid], the EC50 is less than 100 nM.
On to `C=C(C)[C@@H]1CC[C@]2(CN3CCS(=O)(=O)CC3)CC[C@]3(C)[C@H](CC[C@@H]4[C@@]5(C)CC=C(c6ccc(C(=O)O)cc6)C(C)(C)[C@@H]5CC[C@]43C)[C@@H]12` [Example 168, 4-((1R,3aS,5aR,5bR,7aR,11aS,11bR,13aR,13bR)-3a-((1,1-dioxido-4-thiomorpholinyl)methyl)-1-isopropenyl-5a,5b,8,8,11a-pentamethyl-2,3,3a,4,5,5a,5b,6,7,7a,8,11,11a,11b,12,13,13a,13b-octadecahydro-1H-cyclopenta[a]chrysen-9-yl)benzoic acid], for which the EC50 is less than 100 nM.

Still in this assay, the particulars now being: NL43, MT-2 cells infected 4-5 days with NLRluc recombinant virus, numeric value.
For `C=C(C)[C@@H]1CC[C@]2(CNC(=O)NCC(=O)O)CC[C@]3(C)[C@H](CC[C@@H]4[C@@]5(C)CC=C(c6ccc(C(=O)O)cc6)C(C)(C)[C@@H]5CC[C@]43C)[C@@H]12` [Example 157, 4-((1R,3aS,5aR,5bR,7aR,11aS,11bR,13aR,13bR)-3a-((3-(carboxymethyl)ureido)methyl)-5a,5b,8,8,11a-pentamethyl-1-(prop-1-en-2-yl)-2,3,3a,4,5,5a,5b,6,7,7a,8,11,11a,11b,12,13,13a,13b-octadecahydro-1H-cyclopenta[a]chrysen-9-yl)benzoic acid], the EC50 stood at 40 nM.
The same measure, in the same setting: to `C=C(C)[C@@H]1CC[C@]2(CNC(=O)Nc3cccnc3)CC[C@]3(C)[C@H](CC[C@@H]4[C@@]5(C)CC=C(c6ccc(C(=O)O)cc6)C(C)(C)[C@@H]5CC[C@]43C)[C@@H]12` [Example 159, 4-((1R,3aS,5aR,5bR,7aR,11aS,11bR,13aR,13bR)-5a,5b,8,8,11a-pentamethyl-1-(prop-1-en-2-yl)-3a-((3-pyridin-3-ylureido)methyl)-2,3,3a,4,5,5a,5b,6,7,7a,8,11,11a,11b,12,13,13a,13b-octadecahydro-1H-cyclopenta[a]chrysen-9-yl)benzoic acid] belongs 10 nM; to `C=C(C)[C@@H]1CC[C@]2(CNC(=O)Nc3ccc(C(=O)OC)cc3)CC[C@]3(C)[C@H](CC[C@@H]4[C@@]5(C)CC=C(c6ccc(C(=O)O)cc6)C(C)(C)[C@@H]5CC[C@]43C)[C@@H]12` [Example 160, 4-((1R,3aS,5aR,5bR,7aR,11aS,11bR,13aR,13bR)-3a-((3-(4-(methoxycarbonyl)phenyl)ureido)methyl)-5a,5b,8,8,11a-pentamethyl-1-(prop-1-en-2-yl)-2,3,3a,4,5,5a,5b,6,7,7a,8,11,11a,11b,12,13,13a,13b-octadecahydro-1H-cyclopenta[a]chrysen-9-yl)benzoic acid], 260 nM.
